# From patent US20060258601A1, “Formulation for inwardly transferring nucleic acids into eucaryotic cells” (priority 2002, published 2006)
# What was measured:
# Format in all cases: cell-based
# [1] = test system: human cultivated endothelial cells; test: Absorption of FITC-marked decoy oligonucleotide, fluorescence microscopy; settings: for concentration of the nucleic acids in the cell on co-incubation with nonsteroidal anti-inflammatory drug: 100 μmol/l co-incubation, 1 hour (FIG. 6); for effect of transport inhibitors on accumulation/absorption of decoy oligonucleotides: human endothelial cells, methotrexate by comparison with folic acid
# Description: Human endothelial cells were isolated from umbilical veins by treatment with 1.6 U/ml dispase in Hepes-modified tyrode solution for 30 minutes at 37° C. and cultivated on gelatine-coated 6-well tissue-culture dishes (2 mg/ml gelatine in 0.1 M HCl for 30 minutes at room temperature) in 1.5 ml M199 medium (Gibco Life Technologies, Karlsruhe, Germany), containing 20% foetal calf serum, 50 U/ml penicillin, 50 μg/ml streptomycin, 10 U/ml nystatin, 5 mM HEPES and 5 mM TES, 1 μg/ml heparin and 40 μg/ml endothelial growth factor. […] Before the start of the experiment, the endothelial cells cultivated in the 24-well cell-culture plates were washed once with Ringer's solution at 37° C. (composition: 145 mmol/l Na^+, 5 mmol/l K^+, 156 mmol/l Cl^−, 2 mmol/l Ca^2+, 1 mmol/l Mg^2+, 10 mmol/l Hepes, 10 mmol/l D-glucose, pH 7.35). […] After an incubation period of up to 180 min at 37° C. and in ambient air, the cells were washed three times with 1 ml warm, non-modified Ringer's solution. The fluorescence intensities were recorded with the MicroMax CCD-camera (Princeton Instruments Inc., Trenton, N.J., USA), which was coupled to an Axiovert S100 TV microscope (Zeiss, Göttingen, Germany), with an excitation wavelength of 494 nm, an emission wavelength of 518 nm and 200× magnification. The fluorescence images (one image was taken for each portion of the experimental mixture) and the subsequent quantification was implemented using the MetaMorph V3.0 Software (Universal Imaging West Chester, Pa., USA). For the quantification, all fluorescence images for an experimental mixture were initially calibrated to an identical level of brightness and contrast. Following this, the software was used to determine an overall brightness integrated across the individual pixels for each image as a measure for the fluorescence intensity, thereby representing the intracellular concentration of the decoy oligonucleotide.
# caveolin-1 = test: Western-blot analysis of caveolin-1 protein expression after antisense oligonucleotide treatment; settings: human cultivated endothelial cells; antisense 0.5 μmol/l with lipofectin; n=3
# Description: (§1) For an antisense mixture, 3% lipofectin (v/v) (Gibco Life Technologies) was added to 1 ml culture medium and incubated for 60 minutes at room temperature (RT). Following this, the corresponding antisense or control oligonucleotide (Eurogentec, Köln, Germany) was added in a final concentration of 0.5 μmol/l and incubated for a further 30 minutes at room temperature. At the start of the experiments, the corresponding quantities of heparin and endothelial growth factor were added, and the conventional cell culture medium of the endothelial cell culture was replaced by the antisense lipofectin medium. After 6 hours, the antisense lipofectin medium was removed and replaced by fresh cell culture medium; the Western-blot analysis and/or the fluorescence-microscopic analysis of the decoy-oligonucleotide absorption was carried out 24 hours after the transfection. […]
# (§2) The human umbilical vein endothelial cells were opened by freezing successively five times in liquid nitrogen and thawing at 37° C. […] CD40 protein was detected with a polyclonal anti-human antibody (Research Diagnostics Inc., Flanders, N.J., USA). […]
# [2] = test system: reduced folic-acid-carrier; test: Western-blot analysis of reduced folic-acid-carrier protein expression after antisense oligonucleotide treatment; settings: human cultivated endothelial cells; antisense 0.5 μmol/l with lipofectin; n=5
# Description: as §1, §2
# [3] = FITC-marked C/EBP decoy 10 μmol/l
compound,measurement,setting,value
CC(C(=O)O)c1ccc(N2Cc3ccccc3C2=O)cc1 (stereo not drawn) [indoprofen],concentration of the nucleic acids in the cell on co-incubation with nonsteroidal anti-inflammatory drug,[1]; [3],significantly increased
5′-A*T*G*TCCCTCCGAGT*C*T*A-3′ [antisense oligonucleotide for caveolin-1],protein expression of caveolin-1,caveolin-1,37±10 % of the control
same,effect on absorption of the decoy oligonucleotide,"[1]; after inhibition of caveolin-1 expression, FITC-marked C/EBP decoy 10 μmol/l, 1 hour (FIG. 2)",significant restricttion
CN(Cc1cnc2nc(N)nc(N)c2n1)c1ccc(C(=O)N[C@@H](CCC(=O)O)C(=O)O)cc1 [methotrexate],effect of transport inhibitors on accumulation/absorption of decoy oligonucleotides,[1],considerably improved inhibition
"O=S(=O)(O)c1cc(N=C=S)ccc1C=Cc1ccc(N=C=S)cc1S(=O)(=O)O [DIDS, 4,4′-diisothiocyano-2,2′-stilben-disulfonic acid]",effect of transport inhibitors on accumulation/absorption of decoy oligonucleotides,[1],high sensitivity
CC(C(=O)O)c1ccc(-c2ccccc2)c(F)c1 (stereo not drawn) [flurbiprofen],concentration of the nucleic acids in the cell on co-incubation with nonsteroidal anti-inflammatory drug,[1]; [3],significantly increased
CCCN(CCC)S(=O)(=O)c1ccc(C(=O)O)cc1 [probenicid],effect of transport inhibitors on accumulation/absorption of decoy oligonucleotides,[1],probenicid-sensitive
5′-C*A*A*A*GG*T*A*GC*A*C*A*CG*A*G-3′,protein expression of the reduced folic-acid-carrier,[2],33±10 % of the control
same,inhibition of the decoy-oligonucleotide absorption,"[1]; after antisense reduction of hFRC protein, FITC-marked C/EBP decoy 10 μmol/l, 1 hour (FIG. 4)",45%
